These results are taken from patent US20240417764A1, “METHODS FOR THE PRODUCTION OF TRYPTOPHANS, TRYPTAMINES, INTERMEDIATES, SIDE PRODUCTS AND DERIVATIVES” (priority 2021, published 2024).

In data set [1] the target is T1, endogenous Escherichia coli tryptophan synthase beta subunit (TrpB) (Escherichia coli, UniProt P0A879).
T1 construct: Yield for production of tryptophan derivatives by native E. coli TrpB from indole derivatives; endogenous in cells; host or cells: E. coli BL21 Star (DE3) carrying pETM6-SDM2x (empty vector for the TrpB-alone study)
T1 sequence (P0A877 whole entry): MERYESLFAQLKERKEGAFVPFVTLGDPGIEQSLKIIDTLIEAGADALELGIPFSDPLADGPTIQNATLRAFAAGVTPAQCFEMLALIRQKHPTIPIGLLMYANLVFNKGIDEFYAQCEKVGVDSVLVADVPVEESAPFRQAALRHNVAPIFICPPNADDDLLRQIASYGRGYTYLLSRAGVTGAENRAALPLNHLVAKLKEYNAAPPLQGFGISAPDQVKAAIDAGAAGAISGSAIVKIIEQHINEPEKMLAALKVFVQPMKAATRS
T1 sequence (P0A879 2-397): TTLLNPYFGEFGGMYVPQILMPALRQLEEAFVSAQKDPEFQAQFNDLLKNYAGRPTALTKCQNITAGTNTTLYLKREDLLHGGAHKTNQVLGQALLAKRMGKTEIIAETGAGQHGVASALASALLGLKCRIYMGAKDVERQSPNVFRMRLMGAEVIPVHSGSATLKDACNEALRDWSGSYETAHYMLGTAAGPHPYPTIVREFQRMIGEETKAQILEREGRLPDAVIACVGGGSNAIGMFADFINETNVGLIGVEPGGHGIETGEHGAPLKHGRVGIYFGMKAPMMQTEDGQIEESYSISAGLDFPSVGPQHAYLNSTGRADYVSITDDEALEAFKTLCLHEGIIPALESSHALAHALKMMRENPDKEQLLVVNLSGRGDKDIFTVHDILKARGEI
Description: TrpB substrate flexibility, in vivo conversion of substituted indoles to tryptophans. Format: cell-based. The note with it: sampled at 24 h. From the text: (§1) Four previously constructed BL21 Star™ (DE3) cell lines with pETM6-SDM2x plasmid backbones were used, each with endogenous Escherichia coli (E. coli) tryptophan synthase beta subunit (TrpB); (1) no gene insert (empty vector), (2) PsiD gene insert with T7 promoter, (3) PsiD-PsiK gene insert with C4 promoter in operon configuration (pNor, Norbaeocystin Production Strain) (Adams et al., 2022), and (4) PsiD-PsiK-PsiM gene insert with H10 promoter in operon configuration (pSilo16, Psilocybin Production Strain; See WO 2021/086513) (Adams et al., 2019). For the PsiD transcriptional optimization study, each of the nine previously described library members were used, in lieu of the strains above. Overnight cultures were grown in Andrew's Magic Media (AMM) without MOPS, appropriate antibiotics for plasmid retention, and were inoculated from freezer stocks. Experimental cultures were incubated in covered 48-well plates at 37° C. in a shaking incubator. AMM media consistent with above was inoculated at 2% final volume of respective overnight culture and 2 mL aliquoted to each well. Indole derivatives were added to each well, except negative control, at 100 mg/L using 5 uL from a 40 mg/mL stock in EtOH. 4-Nitroindole at 13.3 mg/mL in EtOH was added using 15 uL due to solubility limitations. Cultures were induced at 2 hours using 1 mM ITPG. Cultures were sampled at 24 hours and subjected to LC-MS analysis as described below. Cultures with serine added were identical to those without, except for adding 4.5 g/L of serine prior to inoculation.
Without commercially available standards for many of these compounds absolute quantification of enzymatic products is not possible. Peak areas from one substituted indole could not be compared directly to peak areas from another substituted indole due to significant differences in extinction coefficients. Relative quantification was performed by comparing product UV 280 nm peak areas from HPLC analysis (mAU*min) to that of the corresponding substituted indole. TrpB proficiencies with and without serine were calculated by dividing the tryptophan product peak areas by the total peak areas from the indole and tryptophan peaks. Tryptophan and indole peak areas were determined from duplicate samples with indole and subtraction of any time-correlated peak areas found in the samples without indole addition. Any other indole related peak areas found in indole samples were included in the denominator. Indole related peaks were defined as peaks found in indole samples, but absent from samples without indole addition. Similar calculations were performed for PsiD proficiencies where tryptamine peak areas were divided by the total area of associated tryptamine and tryptophan peaks. Indole utilization was also calculated for PsiD proficiencies where the remaining indole peak areas were divided by the initial peak areas.

A further data set addresses T2, P. cubensis PsiD (Psilocybe cubensis, UniProt P0DPA6, L22F).
T2 construct: expressed in transfected cells; host or cells: E. coli BL21 Star (DE3); PsiD insert with the T7 promoter, or promoter/backbone library members, or pNor and pSilo16
The experiment in a line: PsiD substrate flexibility, in vivo decarboxylation of substituted tryptophans to tryptamines. The format is cell-based, Escherichia coli. To be noted: in vivo in E. coli expressing PsiD, HPLC/LCMS detection.
Excerpt: as §1, with “Indole derivatives were added to each well, except negative control, at 100 mg/L using 5 uL from a 40 mg/mL stock in EtOH. 4-Nitroindole at 13.3 mg/mL in EtOH was added using 15 uL due to solubility limitations. Cultures were induced at 2 hours using 1 mM ITPG. Cultures were sampled at 24 hours and subjected to LC-MS analysis as described below. Cultures with serine added were identical to those without, except for adding 4.5 g/L of serine prior to inoculation.” left out
Without commercially available standards for many of these compounds absolute quantification of enzymatic products is not possible. […] Relative quantification was performed by comparing product UV 280 nm peak areas from HPLC analysis (mAU*min) to that of the corresponding substituted indole. TrpB proficiencies with and without serine were calculated by dividing the tryptophan product peak areas by the total peak areas from the indole and tryptophan peaks. Tryptophan and indole peak areas were determined from duplicate samples with indole and subtraction of any time-correlated peak areas found in the samples without indole addition. […] Indole utilization was also calculated for PsiD proficiencies where the remaining indole peak areas were divided by the initial peak areas.
PsiD substrate flexibility was evaluated jointly in vivo with TrpB, such that if indoles were not sufficiently processed by TrpB, then PsiD activity could not be evaluated. […]

A further data set relates to E. coli BL21 Star (DE3). Description: Culture growth of E. coli production host supplemented with indole derivatives. Format: cell-based, Escherichia coli. The note with it: indole derivative 100 mg/L in 48-well culture, 37 C, compared visually with other indoles.
Excerpt: as §1
Other indoles may have slowed cell growth, but the differences were not easily distinguishable visually as OD600 reading were not taken for every sample.

[2] abbreviates: without supplemental serine, indole 100 mg/L, tryptophan peak area / total indole-related peak areas (UV 280 nm).
Where [3] appears, read: with supplemental serine 4.5 g/L.

T2 sequence (P0DPA6 whole entry, stated change not applied): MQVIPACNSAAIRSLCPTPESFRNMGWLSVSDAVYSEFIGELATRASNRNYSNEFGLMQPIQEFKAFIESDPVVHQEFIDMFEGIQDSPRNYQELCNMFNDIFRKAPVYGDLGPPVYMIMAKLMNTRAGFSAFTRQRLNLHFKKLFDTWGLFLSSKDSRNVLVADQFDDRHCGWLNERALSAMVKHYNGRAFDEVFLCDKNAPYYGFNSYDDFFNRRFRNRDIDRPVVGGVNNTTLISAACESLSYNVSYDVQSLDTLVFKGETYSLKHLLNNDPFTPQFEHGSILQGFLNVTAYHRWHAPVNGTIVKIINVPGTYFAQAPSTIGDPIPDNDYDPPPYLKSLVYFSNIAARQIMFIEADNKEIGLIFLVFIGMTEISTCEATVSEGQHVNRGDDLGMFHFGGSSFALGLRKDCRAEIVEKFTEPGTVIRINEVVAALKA

Consider `Clc1cc2ccccc2[nH]1` [2-chloroindole], for which the “TrpB proficiency (class)” value in data set [1] (setting [2]) is recorded as “moderate (35-65%) or low proficiency (5-35%)”.
`N[C@@H](Cc1c(Cl)[nH]c2ccccc12)C(=O)O` [2-chlorotryptophan]: the “PsiD conversion to tryptamine product” value at P. cubensis PsiD is reported as “neither tryptamine product was observed”.
In the case of `Cc1cc2ccccc2[nH]1` [2-methylindole], the TrpB proficiency in data set [1] (setting [3]) stood at 100%. Moreover, the “PsiD conversion to tryptamine product” value on P. cubensis PsiD is “no tryptamine product could be detected”.
Take `Cc1[nH]c2ccccc2c1C[C@H](N)C(=O)O` [2-methyltryptophan]: the “PsiD conversion to tryptamine product” value at P. cubensis PsiD is listed as “neither tryptamine product was observed”.
Regarding `Nc1cccc2[nH]ccc12` [4-aminoindole], the “culture growth retardation (toxicity effects of the indole derivatives)” value (“culture growth retardation” for short) in the data set with E. coli BL21 Star (DE3) is “significant culture growth retardation”. In data set [1] (setting [3]), the TrpB proficiency was 23%. Besides, in data set [1] (setting [2]), the “TrpB proficiency (class)” value is listed as “moderate (35-65%) or low proficiency (5-35%)”.
Take `Brc1cccc2[nH]ccc12` [4-bromoindole]: in the data set on E. coli BL21 Star (DE3), the “culture growth retardation” value was “significant culture growth retardation”. Further, the “TrpB proficiency (class)” value in data set [1] (setting [2]) was “moderate (35-65%) or low proficiency (5-35%)”.
For the compound `Clc1cccc2[nH]ccc12` [4-chloroindole], in the data set on E. coli BL21 Star (DE3), the “culture growth retardation” value is on record as “significant culture growth retardation”. The “TrpB proficiency (class)” value in data set [1] (setting [2]) is reported as “moderate (35-65%) or low proficiency (5-35%)”.
For `Fc1cccc2[nH]ccc12` [4-fluoroindole], in the data set on E. coli BL21 Star (DE3), the “culture growth retardation” value was “significant culture growth retardation”. The results for the TrpB proficiency in data set [1] (setting [3]) and in data set [1] (setting [2]) were 100% and 27%, respectively. Besides, the “TrpB proficiency (class)” value in data set [1] (setting [2]) is reported as “moderate (35-65%) or low proficiency (5-35%)”.
On to `Oc1cccc2[nH]ccc12` [4-hydroxyindole], for which the TrpB proficiency in data set [1] (setting [3]) is on record as 100%.
`Ic1cccc2[nH]ccc12` [4-iodoindole]: the “culture growth retardation” value with E. coli BL21 Star (DE3) is “significant culture growth retardation”. Moreover, in data set [1] (setting [2]), the “TrpB proficiency (class)” value was “moderate (35-65%) or low proficiency (5-35%)”.
In the case of `COc1cccc2[nH]ccc12` [4-methoxyindole], the “TrpB proficiency (class)” value in data set [1] (setting [2]) is listed as “moderate (35-65%) or low proficiency (5-35%)”.
`Cc1cccc2[nH]ccc12` [4-methylindole]: in the data set on E. coli BL21 Star (DE3), the “culture growth retardation” value is listed as “significant culture growth retardation”. For the same compound, the TrpB proficiency stood at 93% in data set [1] (setting [3]) and 22% in data set [1] (setting [2]). Further, the “TrpB proficiency (class)” value in data set [1] (setting [2]) is reported as “moderate (35-65%) or low proficiency (5-35%)”.
For `Brc1ccc2[nH]ccc2c1` [5-bromoindole], the “culture growth retardation” value with E. coli BL21 Star (DE3) is given as “significant culture growth retardation”.
On the same count and under the same terms, as for `Clc1ccc2[nH]ccc2c1` [5-chloroindole], the entry is “significant culture growth retardation”.
With `Fc1ccc2[nH]ccc2c1` [5-fluoroindole], in the data set on E. coli BL21 Star (DE3), the “culture growth retardation” value is given as “significant culture growth retardation”. In addition, the “TrpB proficiency (class)” value in data set [1] (setting [2]) is recorded as “moderate (35-65%) or low proficiency (5-35%)”.
In the case of `Oc1ccc2[nH]ccc2c1` [5-hydroxyindole], the “TrpB proficiency (class)” value in data set [1] (setting [2]) is reported as “moderate (35-65%) or low proficiency (5-35%)”.
For `Ic1ccc2[nH]ccc2c1` [5-iodoindole], the “culture growth retardation” value in the data set on E. coli BL21 Star (DE3) is recorded as “significant culture growth retardation”.
With `COc1ccc2[nH]ccc2c1` [5-methoxyindole], in data set [1] (setting [2]), the “TrpB proficiency (class)” value is “moderate (35-65%) or low proficiency (5-35%)”.
For `Cc1ccc2[nH]ccc2c1` [5-methylindole], in data set [1] (setting [2]), the “TrpB proficiency (class)” value is “moderate (35-65%) or low proficiency (5-35%)”.
Turning to `Brc1ccc2cc[nH]c2c1` [6-bromoindole], the “culture growth retardation” value in the data set with E. coli BL21 Star (DE3) is given as “significant culture growth retardation”. For the same compound, the “TrpB proficiency (class)” value in data set [1] (setting [2]) was “moderate (35-65%) or low proficiency (5-35%)”.
Consider `Clc1ccc2cc[nH]c2c1` [6-chloroindole], for which the “culture growth retardation” value in the data set on E. coli BL21 Star (DE3) is “significant culture growth retardation”. Also, the “TrpB proficiency (class)” value in data set [1] (setting [2]) is given as “moderate (35-65%) or low proficiency (5-35%)”.
With `Fc1ccc2cc[nH]c2c1` [6-fluoroindole], in the data set with E. coli BL21 Star (DE3), the “culture growth retardation” value is given as “significant culture growth retardation”. Further, the “TrpB proficiency (class)” value in data set [1] (setting [2]) is reported as “moderate (35-65%) or low proficiency (5-35%)”.
In the case of `Oc1ccc2cc[nH]c2c1` [6-hydroxyindole], the TrpB proficiency in data set [1] (setting [3]) amounted to 3%.
As for `Ic1ccc2cc[nH]c2c1` [6-iodoindole], the “culture growth retardation” value in the data set with E. coli BL21 Star (DE3) is “significant culture growth retardation”. In addition, the “TrpB proficiency (class)” value in data set [1] (setting [2]) is “moderate (35-65%) or low proficiency (5-35%)”.
Consider `COc1ccc2cc[nH]c2c1` [6-methoxyindole], for which the “TrpB proficiency (class)” value in data set [1] (setting [2]) is listed as “moderate (35-65%) or low proficiency (5-35%)”.
Regarding `O=[N+]([O-])c1ccc2cc[nH]c2c1` [6-nitroindole], in the data set with E. coli BL21 Star (DE3), the “culture growth retardation” value is recorded as “significant culture growth retardation”.
For the compound `Nc1cccc2cc[nH]c12` [7-aminoindole], in data set [1] (setting [2]), the “TrpB proficiency (class)” value is listed as “moderate (35-65%) or low proficiency (5-35%)”.
Turning to `Brc1cccc2cc[nH]c12` [7-bromoindole], in data set [1] (setting [3]), the TrpB proficiency was 100%.
As to `N#Cc1cccc2cc[nH]c12` [7-cyanoindole], the “TrpB proficiency (class)” value in data set [1] (setting [2]) was “moderate (35-65%) or low proficiency (5-35%)”.
In the case of `Fc1cccc2cc[nH]c12` [7-fluoroindole], the “culture growth retardation” value in the data set on E. coli BL21 Star (DE3) is given as “significant culture growth retardation”. Besides, the TrpB proficiency in data set [1] (setting [3]) came out at 95%; in data set [1] (setting [2]), 45%. Further, the “TrpB proficiency (class)” value in data set [1] (setting [2]) is given as “moderate (35-65%) or low proficiency (5-35%)”.
`Oc1cccc2cc[nH]c12` [7-hydroxyindole] showed a TrpB proficiency in data set [1] (setting [3]) of 100%.
In data set [1] (setting [3]), `Ic1cccc2cc[nH]c12` [7-iodoindole] had a TrpB proficiency of 100%.
`COc1cccc2cc[nH]c12` [7-methoxyindole]: in data set [1] (setting [3]), the TrpB proficiency was 100%.
On to `Cc1cccc2cc[nH]c12` [7-methylindole], for which, in data set [1] (setting [3]), the TrpB proficiency stood at 100%.
